Experimental findings from patent US20050203189A1, “Remedies for chronic kidney diseases” (priority 2002, published 2005) are described below.

Experiment [1] concerns Brain microsomal Na+/Ca2+ exchanger. Kind of experiment: Brain microsomal Na+/Ca2+ exchanger, Na-dependent 45Ca uptake. The class given is biochemical. The following applies: rat brain microsomes; read-out: Inhibitory activity against Na+/Ca2+ exchange (Na-dependent 45Ca uptake), IC50 value, Brain. The procedure: Method of Measuring for Brain Microsomal Na^+/Ca^2+ Exchanger
Brain microsomes (1.5 mg/mil) obtained from 8-week-old rats were pre-treated with 160 mM NaCl-containing buffer to cause Na loading into membrane vesicles. This suspension was diluted 50-fold with 20 μM ^45CaCl2-containing buffer to induce ^45Ca uptake, followed by dilution with the buffer (0° C.) to stop the reaction. The membrane vesicles were immediately collected on a nitrocellulose filter. Subsequently, ^45Ca trapped inside the membrane vesicles was determined by liquid scintillation counting. The above assay for Na^+/Ca^2+ exchange activity in brain microsomes was performed according to the procedures described in J. Biol. Chem., vol. 257, p. 5111 (1982).

The target of experiment [2] is T1, Canine cardiac sarcolemmal vesicle Na+/Ca2+ exchanger (Canis lupus familiaris, UniProt P23685).
T1 construct: Canine cardiac sarcolemmal vesicles (0.5 mg/ml) were prepared by centrifugal fractionation; from tissue; host or cells: canine cardiac sarcolemmal vesicles
Kind of experiment: Canine cardiac sarcolemmal vesicle Na+/Ca2+ exchanger, Na-dependent 45Ca uptake. The following applies: canine cardiac sarcolemmal vesicles; read-out: Inhibitory activity against Na+/Ca2+ exchange (Na-dependent 45Ca uptake), IC50 value, Cardiac sarcolemma. The class given is biochemical. On the procedure: Method of Measuring for Canine Cardiac Sarcolemmal Vesicle Na^+/Ca^2+ Exchanger
Canine cardiac sarcolemmal vesicles (0.5 mg/ml) were prepared by centrifugal fractionation as described in Methods enzymology, vol. 157, p. 85 (1988) and suspended in Solution A (20 mM MOPS-Tris (pH 7.4), 160 mM NaCl or KCl), followed by incubation at room temperature for about one hour to cause Na or K loading into the vesicles. This suspension was diluted 50-fold with 20 μM ^45CaCl2-containing buffer to induce ^45Ca uptake, followed by dilution with the buffer (0° C.) to stop the reaction. The membrane vesicles were immediately collected on a nitrocellulose filter. Subsequently, ^45Ca trapped inside the membrane vesicles was determined by liquid scintillation counting. The Na^+/Ca^2+ exchange activity was evaluated by subtracting the value obtained for K loading from the value obtained for Na loading. The above assay for Na^+/Ca^2+ exchange activity in canine cardiac sarcolemmal vesicles was performed according to the procedures described in J. Biol. Chem., vol. 257, p. 5111 (1982).

Experiment [3] addresses T2, Rat renal cortex-derived BLMVs Na+/Ca2+ exchanger (Rattus norvegicus, UniProt Q01728).
T2 construct: BLMVs were prepared from rat renal cortex; from tissue; host or cells: rat renal cortex basolateral membrane vesicles
Kind of experiment: Rat renal cortex-derived BLMV Na+/Ca2+ exchange activity, Na-dependent 45Ca uptake. The class given is biochemical. The following applies: for IC50: rat renal cortex BLMVs, read-out: Inhibitory activity against Na+/Ca2+ exchange (Na-dependent 45Ca uptake), IC50 value, Renal cortex. On the procedure: Preparation of Rat Renal Cortex-Derived BLMVs (Basolateral Membrane Vesicles) and Method of Measuring for their Na^+/Ca^2+ Exchange Activity
BLMVs were prepared from rat renal cortex and assayed for Na^+/Ca^2+ exchange activity according to the procedures described in Am. J. Physiol., vol. 266, p. F785 (1994).
After being excised from rats, the kidneys were placed in ice-cold sucrose buffer ([…], 0.1 mM PMSF, 10 mM Tris-HCl (pH 7.6)) and decapsulated. The isolated cortex was then finely minced in the sucrose buffer and homogenized sequentially with a Dounce-type homogenizer and a Polytron-type homogenizer, followed by centrifugation at 2500 g for 15 minutes to collect the supernatant. Centrifugation was repeated at 24000 g for 20 minutes to collect the white fluffy portion of the pellet. After further addition of the sucrose buffer, the collected fraction was homogenized with a Dounce-type homogenizer, supplemented with Percoll and then centrifuged at 30000 g for 35 minutes to collect the middle layer. After addition of buffer (100 mM KCl, 100 mM mannitol, 5 mM HEPES-Tris (pH 7.4)), centrifugation was carried out at 34000 g for 30 minutes to collect the loose white pellet (BLMVs). The pellet was further suspended in the KCl-mannitol buffer and then centrifuged at 34000 g for 30 minutes to collect the precipitate, which was used for activity assay.
(Method of Measuring for Na^+/Ca^2+ Exchanger (Na-Dependent ^45Ca Uptake))
The BLMVs thus prepared were equilibrated at 37° C. for 10 minutes in pre-equilibration buffer (100 mM NaCl, 40 mM KCl, 1 mM MgSO4, 10 mM glucose, 5 mM HEPES-Tris (pH 7.4)) and then centrifuged at 20000 g for 5 minutes to collect the precipitate, which was then resuspended in the pre-equilibration buffer. Centrifugation was repeated to collect the precipitate, followed by resuspension in the pre-equilibration buffer. […] Subsequently, the filter was washed twice with 2 ml stop solution and then the amount of ^45Ca trapped inside the BLMVs was determined by using liquid scintillation method.

The subject of experiment [4] is Dahl-salt sensitive (Dahl-S) rats. Kind of experiment: Kidney protective activity in Dahl-salt sensitive rat. The class given is in vivo. The following applies: 10 mg/kg orally twice a day, 6 weeks. On the procedure: This test was conducted following the method described in J. Cardiovascular Pharmacology, Vol. 23, p. 970 (1994). Specifically, procedures are as follows.
Dahl-salt sensitive (Dahl-S) rats and Dahl-salt resistant (Dahl-R) rats as control animals (male, 7 weeks old) were used for the experiment. The rats were divided into 3 groups (6 individuals for each group) for the test. • Group I: Dahl-R+4% NaCl chow+solvent orally administered (twice a day) • Group II: Dahl-S+4% NaCl chow+solvent orally administered (twice a day) • Group III: Dahl-S+4% NaCl chow+SEA0400 10 mg/kg orally administered (twice a day)
Each animal was fed with a 4% NaCl high-salt-containing chow (whereas normal chow contains 0.6% NaCl) and water adlibitum. The solvent and SEA0400 were orally, administered twice a day (first time at 8:30 to 9:30 and second time at 16:30 to 17:30) for consecutive 6 weeks. In 6 weeks after the administration started, each of the rats was placed in a metabolic cage where urine was taken so that the amounts of protein and albumin in urine were measured to observe the effect on the kidney function. Determination of the amounts of protein and albumin in urine was performed following the method described in Bunseki Kagaku, Vol. 32, pp. E379-E386 (1983) and Hypertension, Vol. 40, No. 6, pp. 834-839 (2002) using an autoanalyzer (HITACHI Automatic Analyzer 7060).

The test system of another experiment is ZSF-1 rats. Kind of experiment: Kidney protective activity in spontaneous diabetic rats (ZSF-1). The class given is in vivo, rat. The conditions noted are these: for Amount of urinary albumin excretion / Amount of urinary protein excretion: ZSF-1 rats. The procedure:
ZSF-1 rats and ZSF-1/lean rats which were control animals (8 weeks old) obtained from The Jackson Laboratory were used for this test. The rats were divided into 5 groups (8 individuals for each group) for the test. • Group I: ZSF-1/lean+solvent orally administered (twice a day) • Group II: ZSF-1+solvent orally administered (twice a day) • Group III: ZSF-1+SEA0400 1 mg/kg orally administered (twice a day) • Group IV: ZSF-1+SEA0400 3 mg/kg orally administered (twice a day) • Group V: ZSF-1+SEA0400 10 mg/kg orally administered (twice a day)
The solvent and SEA0400 were orally administered twice a day (first time at 8:30 to 10:30 and second time at 16:30 to 18:30) for consecutive 8 weeks. Eight weeks after the administration started, each of the rats was placed in a metabolic cage where urine was taken so that the amounts of protein and albumin in urine were measured to observe the effect oil the kidney function. Determination of the amounts of protein and albumin was performed following the description of the above-mentioned references using an autoanalyzer (HITACHI 7060 Automatic Analyzer).

For the molecule `N=C(N)SCCc1ccc(OCc2ccc([N+](=O)[O-])cc2)cc1` [K-BR7943, 2-[2-[4-[nitrobenzyloxy]phenyl]ethyl]isothio-ureamethanesulfonate, reference compound], the IC50 came to 11 µM in experiment [1], 7 µM in experiment [2] and 6.8 µM in experiment [3].
Consider `O=[N+]([O-])c1cccnc1Oc1ccc(OCc2ccc(F)cc2)cc1` [SEA0064], for which the “Inhibitory activity relative to SEA0400, renal cortex-derived Na+/Ca2+ exchange activity” value in experiment [3] (relative to SEA0400) is “about 0.07 fold”.
Take `CCOc1ccc(Oc2ccc(OCc3cc(F)ccc3F)cc2)c(N)c1` [SEA0400, 2-[4-[(2,5-difluorophenyl)methoxy]phenoxy]-5-ethoxyaniline]: the IC50 came to 0.2 µM in experiment [1], 0.09 µM in experiment [2] and 0.02 µM in experiment [3]. In addition, the “Kidney protective activity (effect on increase in urinary protein and albumin excretion)” value in experiment [4] is “significantly inhibited the increase in urinary protein and albumin excretion”; in the experiment with ZSF-1 rats (spontaneous diabetic rats (ZSF-1), orally twice a day, 8 weeks), “significantly inhibited the increase in urinary protein and albumin excretion”. Besides, the “Amount of urinary albumin excretion” value in experiment [4] (4% NaCl chow, solvent group 109±14, Dahl-R 2±1) came to 58 ± 8 mg/day; in the experiment with ZSF-1 rats (1 mg/kg orally twice a day, 8 weeks (Group III), solvent group 28±5, lean 1±0.1), 20 ± 5 mg/day; in the experiment on ZSF-1 rats (3 mg/kg orally twice a day, 8 weeks (Group IV), solvent group 28±5) it was 17 ± 5 mg/day; in the experiment with ZSF-1 rats (10 mg/kg orally twice a day, 8 weeks (Group V), solvent group 28±5, significantly lower), 9 ± 2 mg/day. In addition, the “Amount of urinary protein excretion” value in experiment [4] (4% NaCl chow, solvent group 144±11, Dahl-R 23±2) was 91 ± 12 mg/day; in the experiment with ZSF-1 rats (1 mg/kg orally twice a day, 8 weeks (Group III), solvent group 58±9, lean 14±1), 40 ± 8 mg/day; in the experiment on ZSF-1 rats (3 mg/kg orally twice a day, 8 weeks (Group IV), solvent group 58±9), 37 ± 7 mg/day; in the experiment with ZSF-1 rats (10 mg/kg orally twice a day, 8 weeks (Group V), solvent group 58±9, significantly lower) it was 29 ± 5 mg/day.
